One data set has as its system Vero cells. Description: in vitro. The data set is classed as cell-based. The settings on record: African green monkey. An outline of the steps: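 On the same plates after eGFP read-out, resazurin was added and cells incubated a further 5 h at 37 °C, 5% CO2; resorufin fluorescence read with 530 nm excitation. CC50 is the concentration halving resazurin conversion versus cell control; SI = CC50/EC50.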

The subject of a further data set is DENV-2 strain 16681. In words: Tetravalent RT-qPCR assay Protocol A, serotype 2. The settings on record: Dengue virus, DENV2, 72 h; RT-qPCR serotype 2 16681, Vero cells, day 3. The data set is classed as cell-based. (In general: In qPCR the cycle at which signal appears reflects the starting amount.)

The molecule `COc1cc(NC(C(=O)c2c[nH]c3cc(OC)c(C)cc23)c2ccc(F)cc2OC)cc(S(C)(=O)=O)c1` (single isomer, unassigned) [Enantiomer 10B, 2-(4-fluoro-2-methoxyphenyl)-2-((3-methoxy-5-(methylsulfonyl)phenyl)amino)-1-(6-methoxy-5-methyl-1H-indol-3-yl)ethanone] displayed a CC50 in the data set on Vero cells of 4500 nM. For the same molecule, in the data set on DENV-2 strain 16681, the concentration for a half-maximal effect (EC50) is 0.605 nM.

Broadly, the CC50 is the concentration that lowers cell viability or growth by half. Broadly, the EC50 is the concentration needed to bring the measured effect to its halfway point.
